Reference: US20190374509A1, “Methods of Using Metamizole for Treatment of Pyrexia in Equines” (Kindred Biosciences, Inc., priority 2018, published 2019)

How the values were obtained:
horses [1] = experiment: Coagulation effects study, IV BID or TID for 9 days: coagulation panel; assay type: in vivo; settings: for Prothrombin Time LSMEAN: in s; for Difference in Individual Horse Day 10 PT and Baseline PT: Day 10 PT minus highest baseline PT
Method: The purpose of this study was to evaluate the effects of metamizole on coagulation parameters and pharmacokinetic parameters when administered intravenously to horses for 9 days at doses of 0 mg/kg (0×), 30 mg/kg (1×), 60 mg/kg (2×), and 90 mg/kg (3×) of body weight. Doses of 0×, 1×, 2×, and 3× were administered twice daily (BID), every 12 hours±120 min. Doses of 1× and 2× were administered three times daily (TID), every 8 hours±120 min. Metamizole plasma concentrations were assessed in the 1×BID, 3×BID, 1×TID, and 2×TID treatments groups to evaluate for evidence of accumulation.
This was a prospective, randomized, masked, placebo-controlled, parallel-group laboratory study. The protocol was approved by the research laboratory's Institutional Animal Care and Use Committee (IACUC). The study was conducted in compliance with the principles of the relevant CVM Good Clinical Practices Guidelines. Horse care and housing was in compliance with Guide for the Care and Use of Agricultural Animals in Research and Teaching. The study was conducted at a research laboratory with extensive experience in regulatory studies of large animals in the United States.
The investigational drug was a sterile injectable formulation of dipyrone (Zimeta®, Corden Pharma, Caponago, Italy) (500 mg/mL) in 100 mL glass bottles. The placebo was sterile injectable saline (0.9% Saline, Nova-Tech Inc, Grand Island, NE) (0.9% sodium chloride) in 500 mL plastic bottles labeled for veterinary use. Dipyrone treatment groups were 30 mg/kg/dose (1×) administered twice daily (BID), 1× administered three times daily (TID), 60 mg/kg/dose (2×) BID, 2×TID, and 90 mg/kg/dose (3×) BID. Placebo treatment group, (0×) BID, were saline administered at a volume to match the 1× dipyrone group. The dose was calculated based on body weight and administered for nine consecutive days (Days 1-9). Due to the large volume of the injection at the higher test intervals, treatment was administered via indwelling intravenous catheters. Intravenous catheters were placed using standard techniques. Horses were sedated with xylazine (XylaMed™, VetOne, MWI, Boise, Id.) (0.6 mg/kg, IV) and the skin was desensitized with subcutaneous injection of lidocaine (Lidocaine 2%, VetOne, MWI, Boise, Id.). Intravenous catheters were replaced at the discretion of the study director and were maintained with heparinized saline flush prior to, and following, dose administration.
Horses were acclimated to the facility for 14 days prior to start of the treatment phase. […] On Day −1, thirty-two horses were randomized by the study statistician and moved to their assigned pens. On Day −1 (baseline), Day 4, and Day 10 horses had blood collected for a coagulation panel. A physical exam was performed prior to study start and on Day 10.
For continuous endpoints with repeated post-treatment measurements (coagulation), repeated measurement analysis of covariance (SAS MIXED procedure repeated measures of analysis of covariance (RMANCOVA)) were used to evaluate a model including treatment, time, sex, treatment by sex interaction, treatment by time interaction, time by sex interaction, and treatment by time by sex three-way interaction as fixed effects. In addition, baseline values were included as a covariate and remained in the model regardless of its significance. Baseline values were defined as the values prior to and nearest to the first dosing.

horses [2] = experiment: Pyrexia efficacy Study 2 (masked, randomized, placebo controlled, crossover, rectal temperature); assay type: in vivo; settings: for Mean (standard deviation) temperature: 30 mg/kg IV single dose
Method: Study 2: The masked, randomized, placebo controlled laboratory study was conducted at a clinical research organization in the United States. IACUC approval was obtained prior to the conduct of the study. Horses one year of age or older were comingled by the Investigator in order to facilitate transmission of respiratory infections. Horses were monitored by the study staff for elevation of rectal temperature. […] Unblinded dose administrators administered the study drug (Phase 1). A single dose of study drug was administered. Treatment was either dipyrone (30 mg/kg IV) or placebo (saline, matched volume, IV). Blinded personnel recorded the rectal temperature at 4 and 6 hours post-treatment administration. Twenty-four hours following Dose 1 horses were monitored for rectal temperature. Horses with rectal temperature≥102.0° F. were crossed over to the other treatment group. Unblinded dose administrators administered the study drug (Phase 2), and blinded personnel recorded the rectal temperature 4 and 6 hours post-treatment administration. […] Blinding was maintained until the completion of the statistical analysis.
In both studies horses were assessed daily to determine overall safety. Medications that could have impacted the temperature or the underlying cause of the disease were not permitted in either study; however, horses in both studies were eligible for rescue at the discretion of the Investigator. Following completion of the study, the Investigator treated the horses with standard of care for the type, and severity, of clinical signs. Statistical analysis was performed with the Wilcoxon rank sum test (SAS®, SAS Institute, Cary N.C., version 9.4).

[3] = 2X TID, 60 mg/kg IV three times daily
[4] = 3X BID, 90 mg/kg IV twice daily

SMILES: Cc1c(N(C)CS(=O)(=O)O)c(=O)n(-c2ccccc2)n1C [dipyrone, [(2,3-dihydro-1,5-dimethyl-3-oxo-2-phenyl-1H-pyrazol-4-yl)methylamino] methanesulfonic acid]
- Prothrombin Time LSMEAN (horses [1]; 1X BID, 30 mg/kg IV twice daily for 9 days): 13.407
- Prothrombin Time LSMEAN (horses [1]; 1X TID, 30 mg/kg IV three times daily for 9 days): 13.553
- Prothrombin Time LSMEAN (horses [1]; 2X BID, 60 mg/kg IV twice daily for 9 days): 13.469
- Prothrombin Time LSMEAN (horses [1]; 2X TID, 60 mg/kg IV three times daily for 9 days): 13.733
- Prothrombin Time Day 4 Range (horses [1]; [3]): 12.9 to 15.6 s
- Prothrombin Time Day 10 Range (horses [1]; [3]): 13.2 to 16.6 s
- Difference in Individual Horse Day 10 PT and Baseline PT (horses [1]; [3]): 0.1 to 0.5 s
- Prothrombin Time LSMEAN (horses [1]; 3X BID, 90 mg/kg IV twice daily for 9 days): 14.238
- Prothrombin Time Day 4 Range (horses [1]; [4]): 13.2 to 14.5 s
- Prothrombin Time Day 10 Range (horses [1]; [4]): 13.4 to 14.9 s
- Difference in Individual Horse Day 10 PT and Baseline PT (horses [1]; [4]): 0.1 to 0.7 s
- Activated partial thromboplastin time (APTT) or fibrinogen (horses [1]; all treatment groups (30-90 mg/kg IV BID or TID, 9 days)): No main treatment effect
- Mean (standard deviation) temperature (horses [2]; Phase 1, hour 4): 100.0 ° F.
- Mean (standard deviation) temperature (horses [2]; Phase 1, hour 6): 100.8 ° F.
- Mean (standard deviation) temperature (horses [2]; Phase 2 (crossover), hour 4): 100.4 ° F.
- Mean (standard deviation) temperature (horses [2]; Phase 2 (crossover), hour 6): 100.8 ° F.
- Rectal temperature compared to controls (horses [2]; 30 mg/kg IV, both phases, Hour 4, p<0.0001): significantly lowered rectal temperatures
